Patent publication US11655235B2, “Pyrrolidine and piperidine compounds” (YUHAN CORPORATION, priority 2019, dated 2023)

Assays:
Type in all cases: biochemical
Recombinant human FAP = molecular target: T1, Recombinant human FAP (Homo sapiens, UniProt Q12884); experiment: FAP inhibition, fluorogenic substrate Z-Gly-Pro-AMC; details: recombinant human FAP, substrate Z-Gly-Pro-AMC
T1 construct: purchased R&D systems
T1 sequence (Q12884 1-760): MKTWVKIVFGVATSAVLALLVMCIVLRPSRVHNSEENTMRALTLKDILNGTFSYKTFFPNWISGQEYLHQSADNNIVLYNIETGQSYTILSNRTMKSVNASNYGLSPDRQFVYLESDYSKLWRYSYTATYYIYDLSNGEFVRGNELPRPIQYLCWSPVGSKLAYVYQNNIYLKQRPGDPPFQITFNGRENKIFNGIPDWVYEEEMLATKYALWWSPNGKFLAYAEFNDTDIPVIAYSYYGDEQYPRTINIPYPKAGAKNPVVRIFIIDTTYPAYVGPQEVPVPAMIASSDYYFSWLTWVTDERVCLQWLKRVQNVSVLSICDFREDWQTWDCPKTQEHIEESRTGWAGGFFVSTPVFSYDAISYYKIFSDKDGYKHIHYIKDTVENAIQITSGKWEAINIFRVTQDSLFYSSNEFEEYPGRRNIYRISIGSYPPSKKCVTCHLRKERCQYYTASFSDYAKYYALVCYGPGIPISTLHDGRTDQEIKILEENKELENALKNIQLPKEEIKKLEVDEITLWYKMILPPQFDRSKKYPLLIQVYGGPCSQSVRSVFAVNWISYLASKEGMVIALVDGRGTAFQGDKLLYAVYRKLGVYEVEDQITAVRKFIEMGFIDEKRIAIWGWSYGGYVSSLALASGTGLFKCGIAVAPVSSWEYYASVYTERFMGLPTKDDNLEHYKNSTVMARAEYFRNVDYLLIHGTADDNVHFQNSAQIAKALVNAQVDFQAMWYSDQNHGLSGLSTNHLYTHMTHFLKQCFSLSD
Summary of the method: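 Recombinant human FAP, 10 ng per reaction, in 50 mM Tris pH 7.5 with 1 M NaCl and 1 mg/ml BSA at 25° C; substrate Z-Gly-Pro-AMC, ≤0.1% DMSO. AMC fluorescence read at ex 380/em 460 nm; % signal-rate decrease vs no-inhibitor control, 8-point curves fitted to a four-parameter logistic for IC50.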

recombinant human DPP8 = molecular target: T2, recombinant human DPP8 (Homo sapiens, UniProt Q6V1X1); experiment: DPP8 inhibition, fluorogenic substrate Z-Ala-Pro-AMC; details: recombinant human DPP8
T2 construct: purchased PBS Bioscience
T2 sequence (Q6V1X1 whole entry): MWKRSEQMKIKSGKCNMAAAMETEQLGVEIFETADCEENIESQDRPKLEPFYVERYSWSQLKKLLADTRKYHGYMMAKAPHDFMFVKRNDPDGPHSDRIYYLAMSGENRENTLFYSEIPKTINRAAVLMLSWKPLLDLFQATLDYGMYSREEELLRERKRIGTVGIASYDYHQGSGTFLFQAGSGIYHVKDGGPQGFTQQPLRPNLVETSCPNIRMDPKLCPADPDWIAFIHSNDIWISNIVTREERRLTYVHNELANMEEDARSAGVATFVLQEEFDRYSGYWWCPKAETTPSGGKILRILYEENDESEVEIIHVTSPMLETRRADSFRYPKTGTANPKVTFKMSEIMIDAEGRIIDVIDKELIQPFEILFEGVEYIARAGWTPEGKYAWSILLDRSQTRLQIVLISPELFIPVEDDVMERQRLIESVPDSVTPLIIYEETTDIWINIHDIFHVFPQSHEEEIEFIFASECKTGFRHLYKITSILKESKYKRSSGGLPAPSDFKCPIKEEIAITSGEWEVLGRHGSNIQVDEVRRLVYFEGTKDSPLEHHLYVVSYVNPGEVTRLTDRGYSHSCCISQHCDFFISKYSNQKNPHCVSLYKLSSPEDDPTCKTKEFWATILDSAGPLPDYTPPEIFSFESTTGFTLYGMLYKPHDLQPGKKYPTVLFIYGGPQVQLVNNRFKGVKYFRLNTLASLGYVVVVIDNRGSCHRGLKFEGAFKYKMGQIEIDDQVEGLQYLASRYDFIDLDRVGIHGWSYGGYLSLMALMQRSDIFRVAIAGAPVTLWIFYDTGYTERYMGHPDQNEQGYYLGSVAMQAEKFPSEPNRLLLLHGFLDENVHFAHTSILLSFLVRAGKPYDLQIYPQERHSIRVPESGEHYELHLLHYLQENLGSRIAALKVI
Summary of the method: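 Enzyme per reaction: 50 ng DPP9, 20 ng DPP8, 10 ng each DPP7 and PREP. Compounds were serially diluted (8 points, up to 0.5% DMSO) and incubated at 25 °C.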

DPP4 = DPP4 (Homo sapiens, UniProt P27487); experiment: DPP4 inhibition, fluorogenic substrate H-Gly-Pro-AMC; parameters: purchased R&D Systems; details: recombinant human DPP4
Sequence of DPP4 (P27487 whole entry): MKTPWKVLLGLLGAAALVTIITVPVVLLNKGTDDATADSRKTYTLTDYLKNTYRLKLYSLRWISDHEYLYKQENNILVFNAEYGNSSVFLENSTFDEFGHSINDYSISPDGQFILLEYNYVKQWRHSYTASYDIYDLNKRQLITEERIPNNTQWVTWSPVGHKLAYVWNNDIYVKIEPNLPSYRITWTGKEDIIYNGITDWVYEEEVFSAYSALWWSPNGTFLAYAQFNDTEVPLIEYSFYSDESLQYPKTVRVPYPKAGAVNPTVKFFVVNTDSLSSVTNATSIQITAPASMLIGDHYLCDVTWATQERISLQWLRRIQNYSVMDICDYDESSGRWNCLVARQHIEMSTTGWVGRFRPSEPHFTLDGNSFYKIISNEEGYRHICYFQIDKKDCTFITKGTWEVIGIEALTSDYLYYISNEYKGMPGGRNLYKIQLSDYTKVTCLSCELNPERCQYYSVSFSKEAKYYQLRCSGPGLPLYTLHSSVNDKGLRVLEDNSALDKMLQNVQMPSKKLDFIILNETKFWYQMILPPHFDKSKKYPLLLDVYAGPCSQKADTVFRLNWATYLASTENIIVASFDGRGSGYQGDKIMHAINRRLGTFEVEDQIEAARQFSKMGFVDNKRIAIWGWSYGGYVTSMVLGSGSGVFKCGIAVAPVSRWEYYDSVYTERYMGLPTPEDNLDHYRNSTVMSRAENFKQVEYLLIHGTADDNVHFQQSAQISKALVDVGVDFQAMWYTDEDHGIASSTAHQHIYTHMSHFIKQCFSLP

SMILES | IC50 (Recombinant human FAP) [µM] | IC50 (recombinant human DPP8) [µM] | IC50 (DPP4) [µM]
N#C[C@@H]1C[C@H](F)CN1C(=O)CN1CC[C@H](Nc2cccc3ncccc23)C1 [Example 228, (2S,4S)-4-fluoro-1-[2-[(3S)-3-(5-quinolylamino)pyrrolidin-1-yl]acetyl]pyrrolidine-2-carbonitrile] | 0.00121 | 10.8 | > 100
N#Cc1cnc2cccc(N[C@H]3CCN(CC(=O)N4CCC[C@H]4C#N)C3)c2c1 [Example 232, 5-[[(3S)-1-[2-oxo-2-[(2S)-2-cyanopyrrolidin-1-yl]ethyl]pyrrolidin-3-yl]amino]quinoline-3-carbonitrile] | 0.0013 | > 100 | > 10
COc1cnc2cccc(N[C@H]3CCN(CC(=O)N4CCC[C@H]4C#N)C3)c2c1 [Example 233, (2S)-1-[2-[(3S)-3-[(3-methoxy-5-quinolyl)amino]pyrrolidin-1-yl]acetyl]pyrrolidine-2-carbonitrile] | 0.0007 | 28.1 | 37.8
N#C[C@@H]1CCCN1C(=O)CN1CC[C@H](Nc2ccc(F)c3ncccc23)C1 [Example 244, (2S)-1-[2-[(3S)-3-[(8-fluoro-5-quinolyl)amino]pyrrolidin-1-yl]acetyl]pyrrolidine-2-carbonitrile] | 0.0022 | 32.7 | > 10
N#C[C@@H]1CCCN1C(=O)CN1CC[C@H](Nc2ccc(C(F)(F)F)c3ncccc23)C1 [Example 245, (2S)-1-[2-[(3S)-3-[[8-(trifluoromethyl)-5-quinolyl]amino]pyrrolidin-1-yl]acetyl]pyrrolidine-2-carbonitrile] | 0.001 | > 100 | > 10
N#Cc1ccc(N[C@H]2CCN(CC(=O)N3CCC[C@H]3C#N)C2)c2cccnc12 [Example 247, 5-[[(3S)-1-[2-oxo-2-[(2S)-2-cyanopyrrolidin-1-yl]ethyl]pyrrolidin-3-yl]amino]quinoline-8-carbonitrile] | 0.0013 | > 100 | > 10
N#C[C@@H]1C[C@H](F)CN1C(=O)CN1CC[C@H](Nc2cccc3ncc(F)cc23)C1 [Example 255, (2S,4S)-4-fluoro-1-[2-[(3S)-3-[(3-fluoro-5-quinolyl)amino]pyrrolidin-1-yl]acetyl]pyrrolidine-2-carbonitrile] | 0.001 | 5.1 | 2.41
COc1ccc(N[C@H]2CCN(CC(=O)N3C[C@@H](F)C[C@H]3C#N)C2)c2cccnc12 [Example 263, (2S,4S)-4-fluoro-1-[2-[(3S)-3-[(8-methoxy-5-quinolyl)amino]pyrrolidin-1-yl]acetyl]pyrrolidine-2-carbonitrile] | 0.0011 | 3.57 | 0.792
N#C[C@@H]1C[C@H](F)CN1C(=O)CN1CC[C@H](Nc2ccc(OC(F)(F)F)c3ncccc23)C1 [Example 266, (2S,4S)-4-fluoro-1-[2-[(3S)-3-[[8-(trifluoromethoxy)-5-quinolyl]amino]pyrrolidin-1-yl]acetyl]pyrrolidine-2-carbonitrile] | 0.0008 | > 10 | 1.31
N#C[C@@H]1C[C@H](F)CN1C(=O)CN1CC[C@H](Nc2ccc(OCc3ccccc3)c3ncccc23)C1 [Example 268, (2S,4S)-4-fluoro-1-[2-[(3S)-3-[(8-benzyloxy-5-quinolyl)amino]pyrrolidin-1-yl]acetyl]pyrrolidine-2-carbonitrile] | 0.001 | 1.11 | 0.574
N#C[C@@H]1C[C@H](F)CN1C(=O)CN1CCC(Nc2ccc(C(F)(F)F)c3ncccc23)CC1 [Example 334, (2S,4S)-4-fluoro-1-[2-[4-[[8-(trifluoromethyl)-5-quinolyl]amino]-1-piperidyl]acetyl]pyrrolidine-2-carbonitrile] | 0.004 |  | 7.76
N#C[C@@H]1C[C@H](F)CN1C(=O)CN1CCC(Nc2ccc(OC(F)(F)F)c3ncccc23)CC1 [Example 347, (2S,4S)-4-fluoro-1-[2-[4-[[8-(trifluoromethoxy)-5-quinolyl]amino]-1-piperidyl]acetyl]pyrrolidine-2-carbonitrile] | 0.0022 | 2.62 | 2.66
COc1cnc2cccc(NC3CCN(CC(=O)N4C[C@@H](F)C[C@H]4C#N)CC3)c2c1 [Example 348, (2S,4S)-4-fluoro-1-[2-[4-[(3-methoxy-5-quinolyl)amino]-1-piperidyl]acetyl]pyrrolidine-2-carbonitrile] | 0.0021 | 2.44 | 3.6
N#C[C@@H]1C[C@H](F)CN1C(=O)CN1CCC(Nc2cccc3ncc(F)cc23)CC1 [Example 349, (2S,4S)-4-fluoro-1-[2-[4-[(3-fluoro-5-quinolyl)amino]-1-piperidyl]acetyl]pyrrolidine-2-carbonitrile] | 0.0016 | 2.9 | 1.89
N#C[C@@H]1C[C@H](F)CN1C(=O)CN1CCC(Nc2cccc3cnc(Cl)cc23)CC1 [Example 352, (2S,4S)-1-[2-[4-[(3-chloro-5-isoquinolyl)amino]-1-piperidyl]acetyl]-4-fluoro-pyrrolidine-2-carbonitrile] | 0.0027 | > 10 | > 10
COc1cc2c(NC3CCN(CC(=O)N4C[C@@H](F)C[C@H]4C#N)CC3)cccc2cn1 [Example 355, (2S,4S)-4-fluoro-1-[2-[4-[(3-methoxy-5-isoquinolyl)amino]-1-piperidyl]acetyl]pyrrolidine-2-carbonitrile] | 0.0027 | > 100 | 5.25
Cc1ccc2nccc(OC3CCN(CC(=O)N4C[C@@H](F)C[C@H]4C#N)CC3)c2c1 [Example 410, (2S,4S)-4-fluoro-1-[2-[4-[(6-methyl-4-quinolyl)oxy]-1-piperidyl]acetyl]pyrrolidine-2-carbonitrile] | 0.0012 | 10.7 | > 10
